Literature values as cited in patent US20140120162A1, “Bioadhesive Drug Delivery Compositions” (PEROSPHERE INC., priority 2011, published 2014).
Like-named read-outs stand apart in the source and are kept apart here.

How the values were obtained:
[1] = not given; remark: listed apart in the source
[2] = not given; remark: listed apart in the source

1-[(4R,5S)-5-[(2-aminoethyl)amino]-N^2-(10,12-dimethyl-1-oxotetradecyl)-4-hydroxy-L-ornithine]-5-[(3IRI)-3-hydroxy-L-ornithine]pneumocandin B0 diacetate (salt) [Caspofungin acetate]
solubility in ethanol / alcohol: slightly soluble | solubility in methanol: freely soluble | solubility in water: freely soluble | pH of a saturated aqueous solution [1]: approximately 6.6 | bioavailability ([2]; caspofungin): 0%

NC(=O)N1c2ccccc2C=Cc2ccccc21 [Carbamazepine, 5H-dibenz[b,f]azepine-5-carboxamide]
solubility in acetone (acetone): soluble | solubility in ethanol / alcohol: soluble | solubility in water: practically insoluble

C#C[C@]1(O)CC[C@H]2[C@@H]3CCC4=Cc5oncc5C[C@]4(C)[C@H]3CC[C@@]21C [Danazol, 17a-Pregna-2,4-dien-20-yno[2,3-d]-isoxazol-17-ol]
half-life ([2]; danazol administered orally): 4 to 5 h | time of peak concentrations ([2]; danazol administered orally): ≤ 2 h | increase in plasma concentration on doubling the dose ([2]; danazol, doubling the dose): 30-40%

NCC1(CC(=O)O)CCCCC1 [Gabapentin]
bioavailability ([2]; gabapentin, at best, 900 mg dose given three times a day): ≤ 60% | metabolism in humans ([2]; humans): not appreciably metabolized

CC(=O)O[C@H]1C(=O)[C@@]2(C)[C@H]([C@H](OC(=O)c3ccccc3)[C@]3(O)C[C@H](OC(=O)[C@H](O)[C@@H](NC(=O)c4ccccc4)c4ccccc4)C(C)=C1C3(C)C)[C@]1(OC(C)=O)CO[C@@H]1C[C@@H]2O [Paclitaxel]
solubility in water: insoluble

C=CC[C@@H]1/C=C(\C)C[C@H](C)C[C@H](OC)[C@H]2O[C@@](O)(C(=O)C(=O)N3CCCC[C@H]3C(=O)O[C@H](/C(C)=C/[C@@H]3CC[C@@H](O)[C@H](OC)C3)[C@H](C)[C@@H](O)CC1=O)[C@H](C)C[C@@H]2OC [Tacrolimus]
solubility in chloroform (chloroform): very soluble | solubility in ethanol / alcohol: freely soluble | solubility in methanol: very soluble | solubility in water: practically insoluble | absolute bioavailability ([2]; tacrolimus, 5 mg dose taken twice a day, oral): approximately 17%
